In ChEMBL document CHEMBL2413072, “Synthesis and in vitro anticancer studies of novel C-2 arylidene congeners of lantadenes” (2013):

Legend:
Format in all cases: functional
K562 = experiment: Growth inhibition of human K562 cells assessed as cell growth at 10 uM by sulforhodamine B assay; conditions: read-out: Activity
BT-549 = experiment: Growth inhibition of human BT549 cells assessed as growth inhibition at 10 uM by sulforhodamine B assay; conditions: read-out: GI
MDA-MB-231 [1] = experiment: Growth inhibition of human MDA-MB-231 cells assessed as growth inhibition at 10 uM by sulforhodamine B assay; conditions: read-out: GI
MCF7 [2] = experiment: Growth inhibition of human MCF7 cells assessed as growth inhibition at 10 uM by sulforhodamine B assay; conditions: read-out: GI
CAKI-1 = experiment: Growth inhibition of human CAKI-1 cells assessed as growth inhibition at 10 uM by sulforhodamine B assay; conditions: read-out: GI
ACHN [3] = experiment: Growth inhibition of human ACHN cells assessed as growth inhibition at 10 uM by sulforhodamine B assay; conditions: read-out: GI
A498 [4] = experiment: Growth inhibition of human A498 cells assessed as growth inhibition at 10 uM by sulforhodamine B assay; conditions: read-out: GI
786-0 = experiment: Growth inhibition of human 786-0 cells assessed as growth inhibition at 10 uM by sulforhodamine B assay; conditions: read-out: GI
[5] = Growth inhibition of human NCI-ADR-RES cells assessed as growth inhibition at 10 uM by sulforhodamine B assay; conditions: read-out: GI
OVCAR-8 = experiment: Growth inhibition of human OVCAR8 cells assessed as growth inhibition at 10 uM by sulforhodamine B assay; conditions: read-out: GI
MOLT-4 [6] = experiment: Growth inhibition of human MOLT4 cells assessed as cell growth at 10 uM by sulforhodamine B assay; conditions: read-out: Activity
OVCAR-5 = experiment: Growth inhibition of human OVCAR5 cells assessed as growth inhibition at 10 uM by sulforhodamine B assay; conditions: read-out: GI
IGROV-1 [7] = experiment: Growth inhibition of human IGROV1 cells assessed as growth inhibition at 10 uM by sulforhodamine B assay; conditions: read-out: GI
M14 [8] = experiment: Growth inhibition of human M14 cells assessed as growth inhibition at 10 uM by sulforhodamine B assay; conditions: read-out: GI
LOX IMVI = experiment: Growth inhibition of human LOXIMVI cells assessed as growth inhibition at 10 uM by sulforhodamine B assay; conditions: read-out: GI
SF-295 = experiment: Growth inhibition of human SF295 cells assessed as growth inhibition at 10 uM by sulforhodamine B assay; conditions: read-out: GI
HCT-15 = experiment: Growth inhibition of human HCT15 cells assessed as growth inhibition at 10 uM by sulforhodamine B assay; conditions: read-out: GI
COLO 205 [9] = experiment: Growth inhibition of human COLO205 cells assessed as growth inhibition at 10 uM by sulforhodamine B assay; conditions: read-out: GI
NCI-H322M = experiment: Growth inhibition of human NCI-H322M cells assessed as growth inhibition at 10 uM by sulforhodamine B assay; conditions: read-out: GI
HOP-62 [10] = experiment: Growth inhibition of human HOP62 cells assessed as growth inhibition at 10 uM by sulforhodamine B assay; conditions: read-out: GI
SR = experiment: Growth inhibition of human SR cells assessed as growth inhibition at 10 uM by sulforhodamine B assay; conditions: read-out: GI
RPMI-8226 = experiment: Growth inhibition of human RPMI8226 cells assessed as growth inhibition at 10 uM by sulforhodamine B assay; conditions: read-out: GI
MOLT-4 [11] = experiment: Growth inhibition of human MOLT4 cells assessed as growth inhibition at 10 uM by sulforhodamine B assay; conditions: read-out: GI
CCRF-CEM = experiment: Growth inhibition of human CCRF-CEM cells assessed as growth inhibition at 10 uM by sulforhodamine B assay; conditions: read-out: GI
MDA-MB-468 = experiment: Growth inhibition of human MDA-MB-468 cells assessed as cell growth at 10 uM by sulforhodamine B assay; conditions: read-out: Activity
MDA-MB-231 [12] = experiment: Growth inhibition of human MDA-MB-231 cells assessed as cell growth at 10 uM by sulforhodamine B assay; conditions: read-out: Activity
MCF7 [13] = experiment: Growth inhibition of human MCF7 cells assessed as cell growth at 10 uM by sulforhodamine B assay; conditions: read-out: Activity
UO-31 = experiment: Growth inhibition of human UO31 cells assessed as cell growth at 10 uM by sulforhodamine B assay; conditions: read-out: Activity
SN12C = experiment: Growth inhibition of human SN12C cells assessed as cell growth at 10 uM by sulforhodamine B assay; conditions: read-out: Activity
ACHN [14] = experiment: Growth inhibition of human ACHN cells assessed as cell growth at 10 uM by sulforhodamine B assay; conditions: read-out: Activity
A498 [15] = experiment: Growth inhibition of human A498 cells assessed as cell growth at 10 uM by sulforhodamine B assay; conditions: read-out: Activity
SK-OV-3 = experiment: Growth inhibition of human SKOV3 cells assessed as cell growth at 10 uM by sulforhodamine B assay; conditions: read-out: Activity
OVCAR-3 = experiment: Growth inhibition of human OVCAR3 cells assessed as cell growth at 10 uM by sulforhodamine B assay; conditions: read-out: Activity
IGROV-1 [16] = experiment: Growth inhibition of human IGROV1 cells assessed as cell growth at 10 uM by sulforhodamine B assay; conditions: read-out: Activity
SK-MEL-5 = experiment: Growth inhibition of human SK-MEL-5 cells assessed as cell growth at 10 uM by sulforhodamine B assay; conditions: read-out: Activity
SK-MEL-28 = experiment: Growth inhibition of human SK-MEL-28 cells assessed as cell growth at 10 uM by sulforhodamine B assay; conditions: read-out: Activity
SK-MEL-2 = experiment: Growth inhibition of human SK-MEL-2 cells assessed as cell growth at 10 uM by sulforhodamine B assay; conditions: read-out: Activity
M14 [17] = experiment: Growth inhibition of human M14 cells assessed as cell growth at 10 uM by sulforhodamine B assay; conditions: read-out: Activity
Malme-3M = experiment: Growth inhibition of human MALME-3M cells assessed as cell growth at 10 uM by sulforhodamine B assay; conditions: read-out: Activity
U-251 = experiment: Growth inhibition of human U251 cells assessed as cell growth at 10 uM by sulforhodamine B assay; conditions: read-out: Activity
SNB-19 = experiment: Growth inhibition of human SNB19 cells assessed as cell growth at 10 uM by sulforhodamine B assay; conditions: read-out: Activity
HT-29 = experiment: Growth inhibition of human HT-29 cells assessed as cell growth at 10 uM by sulforhodamine B assay; conditions: read-out: Activity
COLO 205 [18] = experiment: Growth inhibition of human COLO205 cells assessed as cell growth at 10 uM by sulforhodamine B assay; conditions: read-out: Activity
NCI-H522 = experiment: Growth inhibition of human NCI-H522 cells assessed as cell growth at 10 uM by sulforhodamine B assay; conditions: read-out: Activity
NCI-H460 = experiment: Growth inhibition of human NCI-H460 cells assessed as cell growth at 10 uM by sulforhodamine B assay; conditions: read-out: Activity
NCI-H23 = experiment: Growth inhibition of human NCI-H23 cells assessed as cell growth at 10 uM by sulforhodamine B assay; conditions: read-out: Activity
NCI-H226 = experiment: Growth inhibition of human NCI-H226 cells assessed as cell growth at 10 uM by sulforhodamine B assay; conditions: read-out: Activity
HOP-92 = experiment: Growth inhibition of human HOP92 cells assessed as cell growth at 10 uM by sulforhodamine B assay; conditions: read-out: Activity
HOP-62 [19] = experiment: Growth inhibition of human HOP62 cells assessed as cell growth at 10 uM by sulforhodamine B assay; conditions: read-out: Activity

CC1(C)C[C@@H](O)[C@]2(C(=O)O)CC[C@]3(C)C(=CC[C@@H]4[C@@]5(C)CCC(=O)C(C)(C)[C@@H]5CC[C@]43C)[C@@H]2C1
growth at 10 µM (K562): 76.8% | inhibition of growth at 10 µM (BT-549): 10.1% | inhibition of growth at 10 µM (MDA-MB-231 [1]): < 10% | inhibition of growth at 10 µM (MCF7 [2]): 18.6% | inhibition of growth at 10 µM (CAKI-1): 15.2% | inhibition of growth at 10 µM (ACHN [3]): < 10% | inhibition of growth at 10 µM (A498 [4]): < 10% | inhibition of growth at 10 µM (786-0): 13.8% | inhibition of growth at 10 µM [5]: < 10% | inhibition of growth at 10 µM (OVCAR-8): 19.2% | growth at 10 µM (MOLT-4 [6]): 78.7% | inhibition of growth at 10 µM (OVCAR-5): < 10% | inhibition of growth at 10 µM (IGROV-1 [7]): < 10% | inhibition of growth at 10 µM (M14 [8]): < 10% | inhibition of growth at 10 µM (LOX IMVI): < 10% | inhibition of growth at 10 µM (SF-295): 19.3% | inhibition of growth at 10 µM (HCT-15): 24.6% | inhibition of growth at 10 µM (COLO 205 [9]): < 10% | inhibition of growth at 10 µM (NCI-H322M): < 10% | inhibition of growth at 10 µM (HOP-62 [10]): 11.3% | inhibition of growth at 10 µM (SR): 16.3% | inhibition of growth at 10 µM (RPMI-8226): 29.8% | inhibition of growth at 10 µM (MOLT-4 [11]): 21.3% | inhibition of growth at 10 µM (CCRF-CEM): 12.5% | growth at 10 µM (MDA-MB-468): 96.2% | growth at 10 µM (MDA-MB-231 [12]): 91.3% | growth at 10 µM (MCF7 [13]): 81.4% | growth at 10 µM (UO-31): 86.1% | growth at 10 µM (SN12C): 83.3% | growth at 10 µM (ACHN [14]): 91.8% | growth at 10 µM (A498 [15]): 91.2% | growth at 10 µM (SK-OV-3): 102% | growth at 10 µM (OVCAR-3): 104% | growth at 10 µM (IGROV-1 [16]): 92.3% | growth at 10 µM (SK-MEL-5): 87.8% | growth at 10 µM (SK-MEL-28): 98% | growth at 10 µM (SK-MEL-2): 96% | growth at 10 µM (M14 [17]): 93.4% | growth at 10 µM (Malme-3M): 87.1% | growth at 10 µM (U-251): 89.2% | growth at 10 µM (SNB-19): 94.2% | growth at 10 µM (HT-29): 83.2% | growth at 10 µM (COLO 205 [18]): 101% | growth at 10 µM (NCI-H522): 80.9% | growth at 10 µM (NCI-H460): 94.7% | growth at 10 µM (NCI-H23): 92.3% | growth at 10 µM (NCI-H226): 103% | growth at 10 µM (HOP-92): 75.4% | growth at 10 µM (HOP-62 [19]): 88.7%

C/C=C(/C)C(=O)O[C@@H]1CC(C)(C)C[C@H]2C3=CC[C@@H]4[C@@]5(C)CCC(=O)C(C)(C)[C@@H]5CC[C@@]4(C)[C@]3(C)CC[C@@]12C(=O)O [LANTADENE A]
growth at 10 µM (K562): 44.1% | inhibition of growth at 10 µM (BT-549): 56% | inhibition of growth at 10 µM (MDA-MB-231 [1]): 24.3% | inhibition of growth at 10 µM (MCF7 [2]): 45.3% | inhibition of growth at 10 µM (CAKI-1): 51.6% | inhibition of growth at 10 µM (ACHN [3]): 46.1% | inhibition of growth at 10 µM (A498 [4]): 23.8% | inhibition of growth at 10 µM (786-0): 55.5% | inhibition of growth at 10 µM [5]: 26.9% | inhibition of growth at 10 µM (OVCAR-8): 36.3% | growth at 10 µM (MOLT-4 [6]): 43.3% | inhibition of growth at 10 µM (OVCAR-5): < 10% | inhibition of growth at 10 µM (IGROV-1 [7]): 28.4% | inhibition of growth at 10 µM (M14 [8]): 36.2% | inhibition of growth at 10 µM (LOX IMVI): 38.2% | inhibition of growth at 10 µM (SF-295): 72.3% | inhibition of growth at 10 µM (HCT-15): 69.8% | inhibition of growth at 10 µM (COLO 205 [9]): 22% | inhibition of growth at 10 µM (NCI-H322M): 31.4% | inhibition of growth at 10 µM (HOP-62 [10]): 24.4% | inhibition of growth at 10 µM (SR): 30.5% | inhibition of growth at 10 µM (RPMI-8226): 83.3% | inhibition of growth at 10 µM (MOLT-4 [11]): 56.7% | inhibition of growth at 10 µM (CCRF-CEM): 56.4% | growth at 10 µM (MDA-MB-468): 50.8% | growth at 10 µM (MDA-MB-231 [12]): 75.7% | growth at 10 µM (MCF7 [13]): 54.7% | growth at 10 µM (UO-31): 42.6% | growth at 10 µM (SN12C): 52.4% | growth at 10 µM (ACHN [14]): 53.9% | growth at 10 µM (A498 [15]): 76.2% | growth at 10 µM (SK-OV-3): 90.1% | growth at 10 µM (OVCAR-3): 62.6% | growth at 10 µM (IGROV-1 [16]): 71.6% | growth at 10 µM (SK-MEL-5): 38.7% | growth at 10 µM (SK-MEL-28): 82.7% | growth at 10 µM (SK-MEL-2): 77.1% | growth at 10 µM (M14 [17]): 63.8% | growth at 10 µM (Malme-3M): 80.4% | growth at 10 µM (U-251): 60.1% | growth at 10 µM (SNB-19): 59.4% | growth at 10 µM (HT-29): 67.9% | growth at 10 µM (COLO 205 [18]): 78% | growth at 10 µM (NCI-H522): 66.1% | growth at 10 µM (NCI-H460): 51.5% | growth at 10 µM (NCI-H23): 58% | growth at 10 µM (NCI-H226): 82% | growth at 10 µM (HOP-92): 43.7% | growth at 10 µM (HOP-62 [19]): 75.6%
